pIC50: −log10 of the molar value. Converted amounts (≈) assume the structure as drawn.
What was measured:
[1] = system: Escherichia coli; experiment: Antibacterial activity against Escherichia coli NIHJ was determined; assay type: functional
[2] = system: Streptococcus pneumoniae; experiment: Antibacterial activity against Penicillin-resistant Streptococcus pneumoniae (PRSP) J-24 was determined; assay type: functional
[3] = system: Klebsiella pneumoniae; experiment: Antibacterial activity against Klebsiella pneumoniae type II was determined; assay type: functional
[4] = system: Enterococcus faecalis; experiment: Antibacterial activity against Enterococcus faecalis ATCC 19433 was determined; assay type: functional
[5] = system: Streptococcus pyogenes; experiment: Antibacterial activity against Streptococcus pyogenes G-36 was determined; assay type: functional
[6] = system: Streptococcus mitis; experiment: Antibacterial activity against Streptococcus mitis IID685 was determined; assay type: functional
[7] = system: Staphylococcus aureus; experiment: Antibacterial activity against Staphylococcus aureus FDA 209P was determined; assay type: functional
[8] = biological target: DNA topoisomerase II (Homo sapiens, UniProt P11388+Q02880); experiment: Inhibitory concentration against human DNA topoisomerase II; assay type: protein assay
[9] = system: Staphylococcus aureus; experiment: Antibacterial activity against methicillin-resistant Staphylococcus aureus (MRSA) 870307 was determined; assay type: functional
[10] = system: Staphylococcus epidermidis; experiment: Antibacterial activity against Staphylococcus epidermidis 56500 was determined; assay type: functional
[11] = biological target: T1, DNA topoisomerase 4 subunit A (Staphylococcus aureus subsp. aureus Mu50, UniProt Q931S2); experiment: Inhibitory concentration against Staphylococcus aureus DNA topoisomerase IV
T1 sequence (Q931S2 whole entry): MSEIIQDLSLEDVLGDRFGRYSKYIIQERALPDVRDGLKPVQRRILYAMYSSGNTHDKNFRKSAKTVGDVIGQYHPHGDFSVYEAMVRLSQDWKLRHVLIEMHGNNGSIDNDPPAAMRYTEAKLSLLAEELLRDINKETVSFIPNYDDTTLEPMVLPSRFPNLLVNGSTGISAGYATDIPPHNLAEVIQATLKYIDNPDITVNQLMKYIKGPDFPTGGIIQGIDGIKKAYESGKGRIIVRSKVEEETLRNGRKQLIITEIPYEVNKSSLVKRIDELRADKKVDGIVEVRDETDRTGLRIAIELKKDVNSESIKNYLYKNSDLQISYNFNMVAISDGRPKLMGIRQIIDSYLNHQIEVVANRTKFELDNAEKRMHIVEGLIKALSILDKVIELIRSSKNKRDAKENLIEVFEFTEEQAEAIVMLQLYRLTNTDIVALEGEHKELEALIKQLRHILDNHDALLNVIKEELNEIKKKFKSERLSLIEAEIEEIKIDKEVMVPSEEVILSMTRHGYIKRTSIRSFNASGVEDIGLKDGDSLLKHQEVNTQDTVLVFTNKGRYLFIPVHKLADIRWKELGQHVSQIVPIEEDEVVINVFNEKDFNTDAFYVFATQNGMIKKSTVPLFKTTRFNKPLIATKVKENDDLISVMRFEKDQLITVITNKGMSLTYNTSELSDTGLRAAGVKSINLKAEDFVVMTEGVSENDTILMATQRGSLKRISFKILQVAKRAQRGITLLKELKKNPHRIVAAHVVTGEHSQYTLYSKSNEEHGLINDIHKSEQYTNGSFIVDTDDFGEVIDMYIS

[12] = Ratio of binding to human DNA topoisomerase II and Staphylococcus aureus DNA topoisomerase IV
[13] = Staphylococcus aureus, read-out: MIC
[14] = Escherichia coli, read-out: MIC
[15] = Streptococcus pneumoniae, read-out: MIC
[16] = Klebsiella pneumoniae, read-out: MIC
[17] = Enterococcus faecalis, ATCC 19433, read-out: MIC
[18] = Streptococcus pyogenes, read-out: MIC
[19] = Streptococcus mitis, read-out: MIC
[20] = Staphylococcus epidermidis, read-out: MIC

SMILES	MIC [2]	MIC [3] [µg/mL]	MIC [4] [µg/mL]	MIC [5]	MIC [6]	MIC [7, 13] [µg/mL]	IC50 [8] [µg/mL]	MIC [9] [µg/mL]	MIC [10]	pIC50 [11]	MIC [1, 14] [ng/mL]	MIC [2, 15] [µg/mL]	MIC [3, 16] [µg/mL]	MIC [4, 17] [µg/mL]	MIC [5, 18] [µg/mL]	MIC [6, 19] [µg/mL]	MIC [9, 13] [µg/mL]	MIC [10, 20] [µg/mL]	Selectivity [12]	other results
Nc1c(F)c(N2C[C@H]3C[C@@H]4C[C@@H]4[C@@H](N)[C@H]3C2)c(F)c2c1c(=O)c(C(=O)O)cn2[C@@H]1C[C@@H]1F (stereo in doubt; 24 (+)) [listing 1 of 2 here]	<=0.003 ug ml-1	0.01 (≈ 0.0223 µM)	0.02 (≈ 0.0446 µM)	<=0.003 ug ml-1	<=0.003 ug ml-1	≤ 0.003	22.47 (≈ 50.1 µM)	0.01 (≈ 0.0223 µM)	<=0.003 ug ml-1	6.51	–	–	–	–	–	–	–	–	–	MIC [1]: <=0.003 ug ml-1
COc1c(N2C[C@@H]3CCCN[C@@H]3C2)c(F)cc2c(=O)c(C(=O)O)cn(C3CC3)c12 [MOXIFLOXACIN]	–	–	–	–	–	0.02 (≈ 0.0498 µM)	–	–	–	–	6 (≈ 0.0149 µM)	0.02 (≈ 0.0498 µM)	0.05 (≈ 0.125 µM)	0.2 (≈ 0.498 µM)	0.2 (≈ 0.498 µM)	0.1 (≈ 0.249 µM)	0.78 (≈ 1.94 µM)	0.1 (≈ 0.249 µM)	–	–
Nc1c(F)c(N2C[C@H]3CCC[C@@H](N)[C@H]3C2)c(F)c2c1c(=O)c(C(=O)O)cn2[C@@H]1C[C@@H]1F (stereo in doubt; 29 (-))	0.1 µg/mL (≈ 0.229 µM)	0.39 (≈ 0.894 µM)	0.78 (≈ 1.79 µM)	0.1 µg/mL (≈ 0.229 µM)	0.1 µg/mL (≈ 0.229 µM)	–	–	0.78 (≈ 1.79 µM)	0.2 µg/mL (≈ 0.458 µM)	–	–	–	–	–	–	–	–	–	–	MIC [1]: 100 ng/mL (≈ 0.229 µM); MIC [7]: 0.02 µg/mL (≈ 0.0458 µM)
Nc1c(F)c(N2C[C@H]3CC[C@H]4C[C@@]4(N)[C@H]3C2)c(F)c2c1c(=O)c(C(=O)O)cn2[C@@H]1C[C@@H]1F (stereo in doubt; 13 (+)) [listing 1 of 2 here]	<=0.003 ug ml-1	0.01 (≈ 0.0223 µM)	0.02 (≈ 0.0446 µM)	<=0.003 ug ml-1	<=0.003 ug ml-1	≤ 0.003	21.89 (≈ 48.8 µM)	0.006 (≈ 0.0134 µM)	<=0.003 ug ml-1	6.17	≤ 3	–	–	–	–	–	–	–	–	–
Nc1c(F)c(N2C[C@H]3C[C@@H]4C[C@@H]4[C@H](N)[C@H]3C2)c(F)c2c1c(=O)c(C(=O)O)cn2[C@@H]1C[C@@H]1F (stereo in doubt; 26 (+)) [listing 1 of 2 here]	–	–	–	–	–	–	–	–	–	–	–	–	–	–	–	–	–	–	17.3	–
CC(=O)NC[C@H]1CN(c2ccc(N3CCOCC3)c(F)c2)C(=O)O1 [LINEZOLID]	–	–	–	–	–	0.78 (≈ 2.31 µM)	–	–	–	–	6250 (≈ 18.5 µM)	0.78 (≈ 2.31 µM)	> 6.25	3.13 (≈ 9.28 µM)	3.13 (≈ 9.28 µM)	1.56 (≈ 4.62 µM)	1.56 (≈ 4.62 µM)	1.56 (≈ 4.62 µM)	–	–
Nc1c(F)c(N2C[C@H]3C[C@@H]4C[C@@H]4[C@H](N)[C@H]3C2)c(F)c2c1c(=O)c(C(=O)O)cn2[C@@H]1C[C@@H]1F (stereo in doubt; 27 (-))	0.006 µg/mL (≈ 0.0134 µM)	–	–	0.01 µg/mL (≈ 0.0223 µM)	0.006 µg/mL (≈ 0.0134 µM)	–	–	0.2 (≈ 0.446 µM)	0.006 µg/mL (≈ 0.0134 µM)	–	–	–	–	–	–	–	–	–	–	–
Nc1c(F)c(N2C[C@H]3CCC[C@@H](N)[C@H]3C2)c(F)c2c1c(=O)c(C(=O)O)cn2[C@@H]1C[C@@H]1F (stereo in doubt; 28 (+)) [listing 1 of 2 here]	–	–	–	–	–	–	–	–	–	–	–	–	–	–	–	–	–	–	38.3	–
Nc1c(F)c(N2C[C@H]3C[C@@H]4C[C@@H]4[C@@H](N)[C@H]3C2)c(F)c2c1c(=O)c(C(=O)O)cn2[C@@H]1C[C@@H]1F (stereo in doubt; 25 (-))	0.1 µg/mL (≈ 0.223 µM)	0.1 (≈ 0.223 µM)	0.2 (≈ 0.446 µM)	0.39 µg/mL (≈ 0.87 µM)	0.1 µg/mL (≈ 0.223 µM)	–	–	1.56 (≈ 3.48 µM)	0.05 µg/mL (≈ 0.111 µM)	–	–	–	–	–	–	–	–	–	–	MIC [1]: 10 ng/mL (≈ 0.0223 µM); MIC [7]: 0.006 µg/mL (≈ 0.0134 µM)
Nc1c(F)c(N2C[C@H]3CC[C@H]4C[C@@]4(N)[C@H]3C2)c(F)c2c1c(=O)c(C(=O)O)cn2[C@@H]1C[C@@H]1F (stereo in doubt; 13 (+)) [listing 2 of 2 here]	–	–	–	–	–	–	–	–	–	–	–	–	–	–	–	–	–	–	71.3	–
Nc1c(F)c(N2C[C@H]3C[C@@H]4C[C@@H]4[C@H](N)[C@H]3C2)c(F)c2c1c(=O)c(C(=O)O)cn2[C@@H]1C[C@@H]1F (stereo in doubt; 26 (+)) [listing 2 of 2 here]	–	–	–	–	–	≤ 0.003	6.65 (≈ 14.8 µM)	0.02 (≈ 0.0446 µM)	–	6.07	≤ 3	≤ 0.003	0.01 (≈ 0.0223 µM)	0.02 (≈ 0.0446 µM)	0.006 (≈ 0.0134 µM)	≤ 0.003	–	≤ 0.003	–	–
Cc1c(N2C[C@H]3CCC[C@@H](N)[C@H]3C2)c(F)c(N)c2c(=O)c(C(=O)O)cn([C@@H]3C[C@@H]3F)c12	–	–	–	–	–	0.006 (≈ 0.0139 µM)	4.66 (≈ 10.8 µM)	–	–	6.14	6 (≈ 0.0139 µM)	≤ 0.003	0.02 (≈ 0.0462 µM)	0.02 (≈ 0.0462 µM)	≤ 0.003	≤ 0.003	0.01 (≈ 0.0231 µM)	≤ 0.003	14.7	–
Nc1c(F)c(N2C[C@H]3CCC[C@@H](N)[C@H]3C2)c(F)c2c1c(=O)c(C(=O)O)cn2[C@@H]1C[C@@H]1F (stereo in doubt; 28 (+)) [listing 2 of 2 here]	<=0.003 ug ml-1	0.01 (≈ 0.0229 µM)	0.02 (≈ 0.0458 µM)	<=0.003 ug ml-1	<=0.003 ug ml-1	–	7 (≈ 16 µM)	0.006 (≈ 0.0137 µM)	<=0.003 ug ml-1	6.38	–	–	–	–	–	–	–	–	–	MIC [1]: <=0.003 ug ml-1; MIC [7]: <=0.003 ug ml-1
Cc1c(N2C[C@H]3CC[C@H]4C[C@@]4(N)[C@H]3C2)c(F)c(N)c2c(=O)c(C(=O)O)cn([C@@H]3C[C@@H]3F)c12	–	–	–	–	–	≤ 0.003	34.21 (≈ 77 µM)	–	–	6.09	≤ 3	0.006 (≈ 0.0135 µM)	0.01 (≈ 0.0225 µM)	0.02 (≈ 0.045 µM)	≤ 0.003	≤ 0.003	0.01 (≈ 0.0225 µM)	≤ 0.003	93.2	–
Nc1c(F)c(N2C[C@H]3CC[C@H]4C[C@@]4(N)[C@H]3C2)c(F)c2c1c(=O)c(C(=O)O)cn2[C@@H]1C[C@@H]1F (stereo in doubt; 14 (-))	0.02 µg/mL (≈ 0.0446 µM)	0.05 (≈ 0.111 µM)	0.2 (≈ 0.446 µM)	0.05 µg/mL (≈ 0.111 µM)	0.02 µg/mL (≈ 0.0446 µM)	–	–	0.2 (≈ 0.446 µM)	0.02 µg/mL (≈ 0.0446 µM)	–	–	–	–	–	–	–	–	–	–	MIC [1]: 6 ng/mL (≈ 0.0134 µM)
C[C@H]1COc2c(N3CCN(C)CC3)c(F)cc3c(=O)c(C(=O)O)cn1c23.C[C@H]1COc2c(N3CCN(C)CC3)c(F)cc3c(=O)c(C(=O)O)cn1c23.O [LEVOFLOXACIN]	–	–	–	–	–	0.2	–	–	–	–	–	0.78	0.05	0.78	0.78	0.39	> 6.25	0.39	–	–
Nc1c(F)c(N2C[C@H]3C[C@@H]4C[C@@H]4[C@@H](N)[C@H]3C2)c(F)c2c1c(=O)c(C(=O)O)cn2[C@@H]1C[C@@H]1F (stereo in doubt; 24 (+)) [listing 2 of 2 here]	–	–	–	–	–	–	–	–	–	–	–	–	–	–	–	–	–	–	151	–
CN[C@H](CC(C)C)C(=O)N[C@H]1C(=O)N[C@@H](CC(N)=O)C(=O)N[C@H]2C(=O)N[C@H]3C(=O)N[C@H](C(=O)N[C@H](C(=O)O)c4cc(O)cc(O)c4-c4cc3ccc4O)[C@H](O)c3ccc(c(Cl)c3)Oc3cc2cc(c3O[C@@H]2O[C@H](CO)[C@@H](O)[C@H](O)[C@H]2O[C@H]2C[C@](C)(N)[C@H](O)[C@H](C)O2)Oc2ccc(cc2Cl)[C@H]1O [VANCOMYCIN]	–	–	–	–	–	0.2 (≈ 0.138 µM)	–	–	–	–	> 6250	0.2 (≈ 0.138 µM)	> 6.25	0.39 (≈ 0.269 µM)	0.39 (≈ 0.269 µM)	0.39 (≈ 0.269 µM)	0.39 (≈ 0.269 µM)	–	–	–

— ChEMBL document CHEMBL1137908, “Synthesis and antibacterial activity of novel 6-fluoro-1-[(1R,2S)-2-fluorocyclopropan-1-yl]-4-oxoquinoline-3-carboxylic acids bearing cyclopropane-fused 2-amino-8-azabicyclo[4.3.0]nonan-8-yl substituents at the C-7 position” (Bioorg Med Chem Lett, 2004)
